Reference: patent publication EP0264914A2, “Process for producing L-phenylalanine” (KYOWA HAKKO KOGYO CO., LTD., priority 1986, dated 1988)
Read-outs that look alike come from different tables or passages of the source.

Experiments:
DS = DS (Escherichia coli, UniProt P0AB91); assay: DS activity with phenylalanine added to the reaction solution; format: biochemical; conditions: 100 mM phenylalanine
Method: (§1) DS, CM and PD activities of Corynebacterium glutamicum ATCC 39019 and transformants containing pEaroG-pheA3 were determined. Determination of DS activity was done according to the method of P.R. Sprinavasan, D.B. Sprinson, et al. [J. Biol. Chem., 234, 716 (1959)] and determination of CM and PD activities was done according to the method of R.G.H. Cotton and F. Gibson [Biochem. Biophys. Acta, 100, 76 (1965)].
(§2) Furthermore, DS, CM and PD activities of the transformants carrying pEaroG-pheA1, pEaroG-pheA2 or pEaroG-pheA3, were determined when 100 mM phenylalanine was added to the reaction solutions. Their activities shown in Table 2 are expressed as percentages of those without addition of phenylalanine.

CM = CM (Escherichia coli, UniProt P0A9J8); assay: CM activity with phenylalanine added to the reaction solution; format: biochemical; conditions: 100 mM phenylalanine; for activity at 100000 µM: read-out: CM activity, expressed as percentage of that without addition of phenylalanine
Method: as §1, §2

PD = PD (Escherichia coli, UniProt P0A9J8); assay: PD activity with phenylalanine added to the reaction solution; format: biochemical; conditions: 100 mM phenylalanine; for activity at 100000 µM: read-out: PD activity, expressed as percentage of that without addition of phenylalanine
Method: as §1, §2

[1] = system: Escherichia coli AB3248 strain carrying pAROG1; assay: Growth on M9 plate medium containing phenylalanine; format: cell-based; conditions: M9 plate medium containing 500 µg/mℓ phenylalanine
Method: Then, 50 µℓ of the ligase reaction mixture was added to 0.2 mℓ of a suspension containing competent cells at a concentration of about 10⁹ cells/mℓ and the mixture was left standing on ice for 10 minutes. Then, the mixture was heated at 37°C for 5 minutes and admixed with 2 mℓ of LB medium. Then, the mixture was left standing at 37°C for 90-120 minutes. Then, the cells were centrifugally washed twice with physiological saline solution and spread onto M9 plate medium (medium comprising 2 g of glucose, 1 g of NH₄Cl, 6 g of Na₂HPO₄, 3 g of KH₂PO₄, 0.1 g of MgSO₄·7H₂O, 15 mg of CaCl₂·2H₂O, 4 mg of thiamine hydrochloride and 15 g of agar in 1 ℓ of water, adjusted to pH 7.2), containing […] each of histidine, proline, arginine, isoleucine and valine. Colonies grown on M9 plate medium were spread onto LB plate medium (LB medium containing 1.6% agar, pH 7.0) containing 100 µg/mℓ ampicillin and LB plate medium containing 20 µg/mℓ tetracycline, and transformants grown on the ampicillin-containing medium and failing to grow on the tetracycline-containing medium were selected.
Furthermore, the HindIII-SalI-cleaved DNA fragment had the same restriction enzyme cleavage sites as those of aroG gene, as reported by W.D. Davies, et al. [Nucl. Acids Res., 10, 4045 (1982)] […]

[2] = Corynebacterium glutamicum ATCC 39019/pEaroG-pheA2
[3] = Corynebacterium glutamicum ATCC 39019/pEaroG-pheA3
[4] = Corynebacterium glutamicum ATCC 39019/pEaroG-pheA1

Sequence of DS (P0AB91 whole entry): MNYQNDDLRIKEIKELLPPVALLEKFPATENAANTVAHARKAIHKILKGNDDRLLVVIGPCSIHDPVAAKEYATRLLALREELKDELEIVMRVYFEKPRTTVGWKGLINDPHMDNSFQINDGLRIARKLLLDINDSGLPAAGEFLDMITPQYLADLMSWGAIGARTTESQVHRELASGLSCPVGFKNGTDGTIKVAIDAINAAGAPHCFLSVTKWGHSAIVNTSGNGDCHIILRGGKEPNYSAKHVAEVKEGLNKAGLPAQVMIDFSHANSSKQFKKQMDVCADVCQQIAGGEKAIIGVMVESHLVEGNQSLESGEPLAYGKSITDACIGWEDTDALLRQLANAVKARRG
Sequence of PD (P0A9J8 whole entry): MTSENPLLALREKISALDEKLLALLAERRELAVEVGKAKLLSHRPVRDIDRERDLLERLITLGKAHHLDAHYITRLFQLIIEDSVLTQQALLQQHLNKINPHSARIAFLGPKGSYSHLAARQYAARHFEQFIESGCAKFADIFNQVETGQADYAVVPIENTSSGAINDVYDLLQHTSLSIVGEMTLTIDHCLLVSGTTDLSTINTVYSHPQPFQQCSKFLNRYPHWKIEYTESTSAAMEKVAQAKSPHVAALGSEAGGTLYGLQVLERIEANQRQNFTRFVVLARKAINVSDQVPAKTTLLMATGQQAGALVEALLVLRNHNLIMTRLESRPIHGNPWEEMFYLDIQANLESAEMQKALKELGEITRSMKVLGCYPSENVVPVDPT
Sequence of CM (P0A9J8 whole entry): as above

SMILES: N[C@@H](Cc1ccccc1)C(=O)O [phenylalanine]
- activity at 100000 µM (DS; Corynebacterium glutamicum ATCC 39019/pEaroG-pheA1, read-out: DS activity, expressed as percentage of that without addition of phenylalanine): 12%
- DS activity, expressed as percentage of that without addition of phenylalanine (DS; [2]): 74 percentages
- DS activity, expressed as percentage of that without addition of phenylalanine (DS; [3]): 74 percentages
- activity at 100000 µM (CM; [4]): 61%
- activity at 100000 µM (CM; [2]): 66%
- CM activity, expressed as percentage of that without addition of phenylalanine (CM; [3]): 89 percentages
- activity at 100000 µM (PD; [4]): 5%
- activity at 100000 µM (PD; [2]): 7%
- PD activity, expressed as percentage of that without addition of phenylalanine (PD; [3]): 81 percentages
- growth of Escherichia coli AB3248 strain carrying pAROG1 [1]: completely inhibited
